# Experimental data reported in patent publication US8354237B2, “Anti-methylation-controlled j protein antibodies and uses thereof” (University of Vermont and State Agriculture College, priority 2007, dated 2013).
# Peptide text beside a SMILES is read from it. * marks the point of attachment. Cbz = O=C(OCc1ccccc1)*
# Tests used:
# Format in all cases: cell-based, human
# [1] = test system: MCF7 cells; assay: Cell viability assay (MTT assay); settings: for response of cells to drug (percent viability, MTT assay): MCF7 cells
# Experimental: (§1) MCF7 and MCF7/ADR cells were a kind gift from Dr. Ken Cowan (National Cancer Institute, Bethesda, Md.). MCF7, MCF7/ADR, MCF7/siMCJ-1B MCF7/siMCJ-3B, […], MD22, MES-SA and MES-Dx5 cells were maintained in RPMI-1640 (Life technologies, Inc., Gaithersburg, Md.) containing 5% FBS (Hyclone, Logan, Utah), Penicillin/streptomycin and 1-glutamine (Gibco). 293T cells were cultured in DMEM-F12 medium (Life technologies, Inc.) supplemented with 10% FBS (Hyclone, Logan, Utah).
# (§2) The dose response of cell line to different drugs was determined by MTT assay as described previously (Conze et al., Cancer Res 61, 8851-8858, 2001; Sladowski et al., J Immunol Methods 157, 203-207, 1993). Different concentrations of drug were used, ranging from 0-100 μM for Doxorubicin, 0-30 μM for Paclitaxel and 0-30 μM for 5-Flurouracil. LD50 values were calculated by non-linear regression and plotted graphically as percentage of viable cells.
# [2] = test system: c-Jun; assay: c-Jun expression by Western blot in MCF7 cells treated with proteasome inhibitor; settings: MG132 5 μM, 4 h
# Experimental: Whole cell extracts were prepared in lysis buffer as previously described (Pedraza-Alva et al., J Biol Chem 276, 729-737, 2001). 40-100 μg of proteins were separated by electrophoresis and transferred on to a nitrocellulose membrane (Conze et al., Cancer Res 61, 8851-8858, 2001). Primary antibodies for Western blotting include anti-ABCB1 (JSB-1 clone) from (ALEXIS corporation Switzerland), rabbit polyclonal anti-MCJ, anti-HA, anti-c-Jun, from (Cell Signaling Technology, Inc) anti-actin and the secondary antibodies goat anti-mouse HRP, goat anti-rabbit HRP and donkey anti-goat HRP Ab from (Santa Cruz Biotechnology). LUMIGLO® chemiluminescent substrate system (KPL, Maryland) was used to visualize the proteins. Levels of actin were determined as loading control.
# It was determined whether the increased c-Jun DNA binding in siMCJ cells could be due to an upregulation of c-Jun protein levels. The levels of c-Jun by Western blot analysis were examined using whole cell lysates. Very low levels of c-Jun were detected in MCF7 cells, but high levels were present in MCF7/siMCJ cells (FIG. 8D). It has been previously reported that c-Jun levels can be regulated by ubiquitination and proteasome mediated degradation (Treier et al., Cell 78, 787-798, 1994). […]
# [3] = test system: MCF7/siMCJ-1B cells; assay: Analysis of drug internalization (flow cytometry, confocal microscopy); settings: for effect on intracellular accumulation of doxorubicin: verapamil 10 μM
# Experimental: (§3) MCF7, MCF7/ADR, MCF7/siMCJ-1B and MCF7/siMCJ-3B cells were treated with doxorubicin (0.3 or 3 μM) for 3 h at 37° C. Negative controls had no drug added. Cells were washed 3 times with PBS and trypsinised and doxorubicin fluorescence was examined by flow cytometry using a LSRII flow cytometer (BD Biosciences, Mass.). FLP3, 695/40 nm filter with 685 nm long pass was used to measure doxorubicin fluorescence. For MCF7/siMCJ cells, EGFP was detected in FLP1, 530/30 nm band-pass with 505 nm long pass. No overlap of two fluorescences could be detected. Confocal microscopy: MCF7, MCF7/ADR, MCF7/siMCJ-1B and -3B (3×10^4) cells were seeded on BD Biocoat coverslips (BD Biosciences, Bedford, Mass.) and treated with doxorubicin in the presence or absence of veraparnil (10 μM). After different periods of time (0, 2, 3 h) cells were washed with PBS and fixed in 3.7% paraformaldehyde to be examined by confocal microscopy. Since both, EGFP (present in MCF7/siMCJ cells) and doxorubicin are excited by 488 nm, the conventional multi track type of analysis could not be used. Instead, the Lambda Mode analysis in the Zeiss confocal microscope (Zeiss LSM 510 META Confocal Laser Scanning Imaging System, Carl Ziess Microimaging Inc, Thronwood, N.Y.) was used that allows a precise analysis of the emission spectrum for each fluorochrome (Chen and Simon, J Cell Biol 148, 863-870, 2000). The cells were excited at 488 nm and emission peaks were readily separated by this methodology with EGFP emission at 500 nm and doxorubicin at 600 nm (FIG. 10).
# [4] = test system: MCF7/ADR cells; assay: as above; settings: 0.3 and 3 μM, 3 h
# Experimental: as §3
# [5] = test system: MCF7/siMCJ-3B cells; assay: as above; settings: 3 h; for intracellular accumulation of doxorubicin: flow cytometry
# Experimental: as §3
# [6] = test system: MCF7 cells; assay: as above
# Experimental: as §3
# [7] = test system: MCF7/siMCJ-1B cells; assay: Cell viability assay (MTT assay)
# Experimental: as §1, §2
# [8] = test system: MCF7/ADR cells; assay: Cell viability assay (MTT assay)
# Experimental: as §1, §2
# [9] = test system: MCF7/siMCJ-3B cells; assay: Cell viability assay (MTT assay)
# Experimental: as §1, §2
# [10] = test system: MCJ; assay: MCJ mRNA expression by RT-PCR in MCF7 cells cultured with IL-6; settings: IL-6 50 ng/ml, 8 days (one week), RT-PCR and real-time RT-PCR
# Excerpt: Total RNA was isolated using ULTRASPEC® RNA isolation systems, as recommended by the manufacturer (Biotecx Laboratories, Inc, Houston, Tex.). The first strand cDNA was obtained by reverse transcription as described previously (Conze et al., Cancer Res 61, 8851-8858, 2001). cDNA was used to detect human […], HPRT, MCJ, ABCG2 and ABCC1 expression by conventional PCR or real-time RT-PCR. Previously described primers were used for the conventional RT-PCR amplification of ABCB1 (Noonan et al., Proc Natl Acad Sci USA 87, 7160-7164, 1990), HPRT (Conze et al., Cancer Res 61, 8851-8858, 2001), ABCC1 (Harbottle et al., Int J Cancer 92, 777-783, 2001), ABCG2 (Doyle and Ross, Oncogene 22, 7340-7358, 2003) and MCJ (Shridhar et al., Cancer Res 61, 4258-4265, 2001). For the real-time RT-PCR analysis, by TAQMAN® system (Applied Biosystems), an Assay on Demand Kit for human HPRT and ABCB1 (Sigma, Genosys) was used. For the detection of MCJ by real time RT-PCR, we used the following probe and primer set were used (Sigma, Genosys) (probe 5′-[…]-3; (SEQ ID NO:22) sense primer 5′-CAGAAAATGA GTAGGCGAGAAGC-3′ (SEQ ID NO:23) and anti-sense primer 5′-[…]-3′ (SEQ ID NO:24). HPRT was used as an endogenous control to normalize the mRNA values in each sample. The relative values were determined by the comparative CT analysis method. […]
compound,measurement,setting,value
"O=c1[nH]cc(F)c(=O)[nH]1 [5-FU, 5-fluorouracil]",dose-response compared between cell lines (MTT assay),"[1]; MCF7, MCF7/ADR, MCF7/siMCJ-1B and -3B cells",comparable
CC(C)C[C@@H](C=O)NC(=O)[C@H](CC(C)C)NC(=O)[C@H](CC(C)C)NC(=O)OCc1ccccc1 [MG132] (Cbz-Leu-Leu-Leu-aldehyde),c-Jun levels compared with untreated MCF7 cells,[2],Increased levels
COc1cccc2c1C(=O)c1c(O)c3c(c(O)c1C2=O)C[C@@](O)(C(=O)CO)C[C@@H]3O[C@H]1C[C@H](N)[C@H](O)[C@H](C)O1 [doxorubicin],doxorubicin fluorescence (intracellular accumulation),"[3]; confocal microscopy, 3 h",no doxorubicin fluorescence was observed
same,intracellular accumulation of doxorubicin,"[3]; flow cytometry, 0.3 μM, 3 h",no intracellular accumulation
same,intracellular accumulation of doxorubicin,"[3]; flow cytometry, 3 μM, 3 h",very low intracellular levels
same,intracellular accumulation of doxorubicin,[4],no doxorubicin was observed
same,doxorubicin fluorescence (intracellular accumulation),[5]; confocal microscopy,no doxorubicin fluorescence was observed
same,intracellular accumulation of doxorubicin,[5]; 0.3 μM,no intracellular accumulation
same,intracellular accumulation of doxorubicin,[5]; 3 μM,very low intracellular levels
same,doxorubicin fluorescence (intracellular accumulation),"[6]; confocal microscopy, 1, 2 or 3 h",maximum level of intracellular accumulation was reached after 3 h
same,intracellular accumulation of doxorubicin,"[6]; flow cytometry, 0.3 and 3 μM, 3 h",High levels
same,"response of cells to drug (percent viability, MTT assay)",[7],significantly more resistant
same,"response of cells to drug (percent viability, MTT assay)",[8],highly resistant
same,"response of cells to drug (percent viability, MTT assay)",[9],significantly more resistant
same,"response of cells to drug (percent viability, MTT assay)",[1],highly sensitive
CC(=O)O[C@H]1C(=O)[C@@]2(C)[C@H]([C@H](OC(=O)c3ccccc3)[C@]3(O)C[C@H](OC(=O)[C@H](O)[C@@H](NC(=O)c4ccccc4)c4ccccc4)C(C)=C1C3(C)C)[C@]1(OC(C)=O)CO[C@@H]1C[C@@H]2O [paclitaxel],"response of cells to drug (percent viability, MTT assay)",[7],highly resistant
same,"response of cells to drug (percent viability, MTT assay)",[9],highly resistant
same,"response of cells to drug (percent viability, MTT assay)",[1],highly sensitive
COc1ccc(CCN(C)CCCC(C#N)(c2ccc(OC)c(OC)c2)C(C)C)cc1OC (stereo not shown) [verapamil],effect on intracellular accumulation of doxorubicin,"[3]; confocal microscopy, doxorubicin 3 h",clear intracellular accumulation was observed
same,effect on intracellular accumulation of doxorubicin,"[3]; flow cytometry, doxorubicin 3 μM, 3 h",allowed the intracellular accumulation of doxorubicin
same,effect on intracellular accumulation of doxorubicin,"[6]; flow cytometry, verapamil 10 μM, doxorubicin 3 μM, 3 h",no effect
IL-6: exogenous IL-6 added to MCF7 cell culture,MCJ mRNA levels compared with untreated MCF7 cells,[10],reduced levels
